# From US7138361B2, “Herbicidal heterocycles” (E. I. du Pont de Nemours and Company, priority 2000, dated 2006)
# Assays:
# Type in all cases: in vivo
# [1] = system: Surinam grass (Brachiaria decumbens); assay: Test C postemergence
# Text: (§1) Seeds of plant species selected from bermudagrass (Cynodon dactylon), Surinam grass (Brachiaria decumbens), cocklebur (Xanthium strumarium), corn (Zea mays), crabgrass (Digitaria sanguinalis), woolly cupgrass (Eriochloa villosa), giant foxtail (Setaria faberii), goosegrass (Eleusine indica), johnsongrass (Sorghum halepense), kochia (Kochia scoparia), lambsquarters (Chenopodium album), morningglory (Ipomoea hederacea), yellow nutsedge (Cyperus esculentus), pigweed (Amaranthus retroflexus), common ragweed (Ambrosia elatior), soybean (Glycine max) and velvetleaf (Abutilon theophrasti) were planted and treated preemergence with test chemicals formulated in a non-phytotoxic solvent mixture which included a surfactant.
# (§2) At the same time, plants selected from these crop and weed species and also winter barley (Hordeum vulgare), blackgrass (Alopecurus myosuroides), canary grass (Phalaris minor), chickweed (Stellaria media), downy brome (Bromus tectorum), green foxtail (Setaria viridis), Italian ryegrass (Lolium multiflorum), wheat (Triticum aestivum), wild oat (Avena fatua) and windgrass (Apera spica-venti) were treated with postemergence applications of some of the test chemicals formulated in the same manner. Plants ranged in height from 2 to 18 cm (1- to 4-leaf stage) for postemergence treatments. Plant species in the flooded paddy test consisted of rice (Oryza saliva), smallflower flatsedge (Cyperus difformis), duck salad (Heteranthera limosa) and barnyardgrass (Echinochloa crus-galli) grown to the 2-leaf stage for testing. Treated plants and controls were maintained in a greenhouse for 12 to 14 days, after which time all species were compared to controls and visually evaluated. Plant response ratings, summarized in Table C, are based on a scale of 0 to 100 where 0 is no effect and 100 is complete control. A dash (-) response means no test result.
# [2] = system: bermudagrass (Cynodon dactylon); assay: Test C postemergence
# Text: as §1, §2
# [3] = system: common ragweed (Ambrosia elatior); assay: Test C postemergence
# Text: as §1, §2
# corn (Zea mays) = assay: Test C postemergence
# Text: as §1, §2
# [4] = system: giant foxtail (Setaria faberii); assay: Test C postemergence
# Text: as §1, §2
# [5] = system: lambsquarters (Chenopodium album); assay: Test C postemergence
# Text: as §1, §2
# [6] = system: morningglory (Ipomoea hederacea); assay: Test C postemergence
# Text: as §1, §2
# [7] = system: pigweed (Amaranthus retroflexus); assay: Test C postemergence
# Text: as §1, §2
# [8] = system: crabgrass (Digitaria sanguinalis); assay: Test C preemergence; conditions: for Plant response rating (0 to 100), Crabgrass: visual evaluation after 12 to 14 days
# How it was run: (§3)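 Seeds are planted and treated before emergence; for the postemergence test, plants at 1- to 4-leaf stage (2–18 cm) receive the same formulation, a solvent blend containing surfactant. Plants stay in the greenhouse 12–14 days, then response is scored visually from 0 (none) to 100 (complete control).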
# [9] = system: goosegrass (Eleusine indica); assay: Test C preemergence; conditions: for Plant response rating (0 to 100), Goosegrass: visual evaluation after 12 to 14 days
# How it was run: as §3
# [10] = system: morningglory (Ipomoea hederacea); assay: Test C preemergence; conditions: for Plant response rating (0 to 100), Morningglory: visual evaluation after 12 to 14 days
# How it was run: as §3
# [11] = system: yellow nutsedge (Cyperus esculentus); assay: Test C preemergence; conditions: for Plant response rating (0 to 100), Nutsedge: visual evaluation after 12 to 14 days
# How it was run: as §3
# [12] = Rate 125 g/ha, scale 0 to 100, 0 no effect, 100 complete control
# [13] = Rate 250 g/ha, scale 0 to 100 (0 no effect, 100 complete control)
# [14] = Rate 500 g/ha, scale 0 to 100 (0 no effect, 100 complete control)
# [15] = Preemergence, Rate 500 g/ha, scale 0 to 100
# [16] = Rate 62 g/ha, scale 0 to 100, 0 no effect, 100 complete control
# [17] = preemergence, Rate 125 g/ha, scale 0 to 100, 0 no effect, 100 complete control
# [18] = preemergence, Rate 250 g/ha, scale 0 to 100, 0 no effect, 100 complete control
smiles,measurement,setting,value
O=C1C(n2ccc(C3CCC3)n2)SCN1c1cccc(OC(F)(F)F)c1 (centres unmarked) [Compound 38],"Plant response rating, Surinam grass","[1]; Rate 62 g/ha, scale 0 to 100",0
same,"Plant response rating, Surinam grass",[1]; [12],0
same,"Plant response rating, Surinam grass",[1]; [13],0
same,"Plant response rating, Surinam grass",[1]; [14],0
same,"Plant response rating, Bermudagrass","[2]; Rate 62 g/ha, scale 0 to 100",0
same,"Plant response rating, Bermudagrass",[2]; [12],0
same,"Plant response rating, Bermudagrass",[2]; [13],30
same,"Plant response rating, Bermudagrass",[2]; [14],70
same,"Plant response rating, Ragweed, Common","[3]; Rate 62 g/ha, scale 0 to 100",0
same,"Plant response rating, Ragweed, Common",[3]; [12],0
same,"Plant response rating, Ragweed, Common",[3]; [13],40
same,"Plant response rating, Ragweed, Common",[3]; [14],40
same,"Plant response rating, Corn","corn (Zea mays); Rate 62 g/ha, scale 0 to 100",0
same,"Plant response rating, Corn",corn (Zea mays); [12],0
same,"Plant response rating, Corn",corn (Zea mays); [13],0
same,"Plant response rating, Corn",corn (Zea mays); [14],0
same,"Plant response rating, Foxtail, Giant","[4]; Rate 62 g/ha, scale 0 to 100",0
same,"Plant response rating, Foxtail, Giant",[4]; [12],0
same,"Plant response rating, Foxtail, Giant",[4]; [13],0
same,"Plant response rating, Foxtail, Giant",[4]; [14],0
same,"Plant response rating, Lambsquarters","[5]; Rate 62 g/ha, scale 0 to 100",30
same,"Plant response rating, Lambsquarters",[5]; [12],30
same,"Plant response rating, Lambsquarters",[5]; [13],70
same,"Plant response rating, Lambsquarters",[5]; [14],70
same,"Plant response rating, Morningglory","[6]; Rate 62 g/ha, scale 0 to 100",0
same,"Plant response rating, Morningglory",[6]; [12],0
same,"Plant response rating, Morningglory",[6]; [13],0
same,"Plant response rating, Morningglory",[6]; [14],20
same,"Plant response rating, Pigweed","[7]; Rate 62 g/ha, scale 0 to 100",0
same,"Plant response rating, Pigweed",[7]; [12],0
same,"Plant response rating, Pigweed",[7]; [13],0
same,"Plant response rating, Pigweed",[7]; [14],0
same,"Plant response rating, Crabgrass",[8]; [15],100
same,"Plant response rating, Crabgrass",[8]; [16],90
same,"Plant response rating (0 to 100), Crabgrass","[8]; preemergence, Rate 250 g/ha",100
same,"Plant response rating, Crabgrass",[8]; [17],100
same,"Plant response rating, Goosegrass",[9]; [15],100
same,"Plant response rating, Goosegrass",[9]; [16],80
same,"Plant response rating (0 to 100), Goosegrass","[9]; preemergence, Rate 250 g/ha",100
same,"Plant response rating, Goosegrass",[9]; [17],90
same,"Plant response rating, Morningglory",[10]; [15],0
same,"Plant response rating (0 to 100), Morningglory","[10]; preemergence, Rate 250 g/ha",0
same,"Plant response rating, Morningglory",[10]; [17],0
same,"Plant response rating, Nutsedge",[11]; [15],70
same,"Plant response rating, Nutsedge",[11]; [16],0
same,"Plant response rating (0 to 100), Nutsedge","[11]; preemergence, Rate 250 g/ha",0
same,"Plant response rating, Nutsedge",[11]; [17],0
CCC(C)c1ccn(C2CCN(c3ccc(C)c(OC)c3)C2=O)n1 (centres unmarked) [Compound 80],"Plant response rating, Surinam grass","[1]; Rate 62 g/ha, scale 0 to 100",0
same,"Plant response rating, Surinam grass",[1]; [12],0
same,"Plant response rating, Surinam grass",[1]; [13],0
same,"Plant response rating, Surinam grass",[1]; [14],0
same,"Plant response rating, Bermudagrass","[2]; Rate 62 g/ha, scale 0 to 100",0
same,"Plant response rating, Bermudagrass",[2]; [12],0
same,"Plant response rating, Bermudagrass",[2]; [13],0
same,"Plant response rating, Bermudagrass",[2]; [14],20
same,"Plant response rating, Ragweed, Common","[3]; Rate 62 g/ha, scale 0 to 100",0
same,"Plant response rating, Ragweed, Common",[3]; [12],0
same,"Plant response rating, Ragweed, Common",[3]; [13],50
same,"Plant response rating, Ragweed, Common",[3]; [14],80
same,"Plant response rating, Corn","corn (Zea mays); Rate 62 g/ha, scale 0 to 100",0
same,"Plant response rating, Corn",corn (Zea mays); [12],0
same,"Plant response rating, Corn",corn (Zea mays); [13],0
same,"Plant response rating, Corn",corn (Zea mays); [14],0
same,"Plant response rating, Foxtail, Giant","[4]; Rate 62 g/ha, scale 0 to 100",0
same,"Plant response rating, Foxtail, Giant",[4]; [12],0
same,"Plant response rating, Foxtail, Giant",[4]; [13],0
same,"Plant response rating, Foxtail, Giant",[4]; [14],20
same,"Plant response rating, Lambsquarters","[5]; Rate 62 g/ha, scale 0 to 100",10
same,"Plant response rating, Lambsquarters",[5]; [14],90
same,"Plant response rating, Morningglory","[6]; Rate 62 g/ha, scale 0 to 100",50
same,"Plant response rating, Morningglory",[6]; [12],60
same,"Plant response rating, Morningglory",[6]; [13],60
same,"Plant response rating, Morningglory",[6]; [14],100
same,"Plant response rating, Pigweed","[7]; Rate 62 g/ha, scale 0 to 100",20
same,"Plant response rating, Pigweed",[7]; [12],40
same,"Plant response rating, Pigweed",[7]; [14],70
same,"Plant response rating, Crabgrass",[8]; [16],100
same,"Plant response rating, Crabgrass",[8]; [12],100
same,"Plant response rating (0 to 100), Crabgrass","[8]; preemergence, Rate 250 g/ha",100
same,"Plant response rating (0 to 100), Crabgrass","[8]; preemergence, Rate 500 g/ha",100
same,"Plant response rating, Goosegrass",[9]; [16],100
same,"Plant response rating, Goosegrass",[9]; [12],100
same,"Plant response rating (0 to 100), Goosegrass","[9]; preemergence, Rate 250 g/ha",100
same,"Plant response rating (0 to 100), Goosegrass","[9]; preemergence, Rate 500 g/ha",100
same,"Plant response rating, Morningglory",[10]; [16],0
same,"Plant response rating, Morningglory",[10]; [12],20
same,"Plant response rating (0 to 100), Morningglory","[10]; preemergence, Rate 500 g/ha",100
same,"Plant response rating, Morningglory",[10]; [18],100
same,"Plant response rating, Nutsedge",[11]; [16],0
same,"Plant response rating, Nutsedge",[11]; [12],20
same,"Plant response rating (0 to 100), Nutsedge","[11]; preemergence, Rate 500 g/ha",0
same,"Plant response rating, Nutsedge",[11]; [18],0
CCC(C)c1ccn(C2SCN(c3cccc(OC(F)(F)F)c3)C2=O)n1 (centres unmarked) [Compound 40],"Plant response rating, Surinam grass","[1]; Rate 62 g/ha, scale 0 to 100",0
same,"Plant response rating, Surinam grass",[1]; [12],0
same,"Plant response rating, Surinam grass",[1]; [13],0
same,"Plant response rating, Surinam grass",[1]; [14],0
same,"Plant response rating, Bermudagrass","[2]; Rate 62 g/ha, scale 0 to 100",0
same,"Plant response rating, Bermudagrass",[2]; [12],20
same,"Plant response rating, Bermudagrass",[2]; [13],60
same,"Plant response rating, Bermudagrass",[2]; [14],70
same,"Plant response rating, Ragweed, Common","[3]; Rate 62 g/ha, scale 0 to 100",0
same,"Plant response rating, Ragweed, Common",[3]; [12],0
same,"Plant response rating, Ragweed, Common",[3]; [13],30
same,"Plant response rating, Ragweed, Common",[3]; [14],40
same,"Plant response rating, Corn","corn (Zea mays); Rate 62 g/ha, scale 0 to 100",0
same,"Plant response rating, Corn",corn (Zea mays); [12],0
same,"Plant response rating, Corn",corn (Zea mays); [13],20
same,"Plant response rating, Corn",corn (Zea mays); [14],30
same,"Plant response rating, Foxtail, Giant","[4]; Rate 62 g/ha, scale 0 to 100",0
same,"Plant response rating, Foxtail, Giant",[4]; [12],0
same,"Plant response rating, Foxtail, Giant",[4]; [13],0
same,"Plant response rating, Foxtail, Giant",[4]; [14],0
same,"Plant response rating, Lambsquarters","[5]; Rate 62 g/ha, scale 0 to 100",20
same,"Plant response rating, Lambsquarters",[5]; [12],40
same,"Plant response rating, Lambsquarters",[5]; [13],50
same,"Plant response rating, Lambsquarters",[5]; [14],70
same,"Plant response rating, Morningglory","[6]; Rate 62 g/ha, scale 0 to 100",0
same,"Plant response rating, Morningglory",[6]; [12],0
same,"Plant response rating, Morningglory",[6]; [13],0
same,"Plant response rating, Morningglory",[6]; [14],0
same,"Plant response rating, Pigweed","[7]; Rate 62 g/ha, scale 0 to 100",0
same,"Plant response rating, Pigweed",[7]; [12],0
same,"Plant response rating, Pigweed",[7]; [13],50
same,"Plant response rating, Pigweed",[7]; [14],50
same,"Plant response rating, Crabgrass",[8]; [15],100
same,"Plant response rating, Crabgrass",[8]; [16],100
same,"Plant response rating (0 to 100), Crabgrass","[8]; preemergence, Rate 250 g/ha",100
same,"Plant response rating, Crabgrass",[8]; [17],100
same,"Plant response rating, Goosegrass",[9]; [15],100
same,"Plant response rating, Goosegrass",[9]; [16],90
same,"Plant response rating (0 to 100), Goosegrass","[9]; preemergence, Rate 250 g/ha",100
same,"Plant response rating, Goosegrass",[9]; [17],100
same,"Plant response rating, Morningglory",[10]; [15],0
same,"Plant response rating, Morningglory",[10]; [16],0
same,"Plant response rating (0 to 100), Morningglory","[10]; preemergence, Rate 250 g/ha",0
same,"Plant response rating, Morningglory",[10]; [17],0
same,"Plant response rating, Nutsedge",[11]; [15],60
same,"Plant response rating, Nutsedge",[11]; [16],0
same,"Plant response rating (0 to 100), Nutsedge","[11]; preemergence, Rate 250 g/ha",50
same,"Plant response rating, Nutsedge",[11]; [17],0
